Patent US20250019378A1, “PYRROLE[2,3-B]PYRIDINE DERIVATIVES AS TYRO3 INHIBITORS” (HALIA THERAPEUTICS, INC., priority 2021, published 2025)

These molecules were tested against recombinant human Tyro3 (Homo sapiens (Human), UniProt Q06418) (assay: Tyro3 Enzymatic Assay). Details: radiometric [32P]-ATP kinase assay, Poly(Glu, Tyr) substrate, 2 nM enzyme.
Sequence of recombinant human Tyro3 (Q06418 41-890): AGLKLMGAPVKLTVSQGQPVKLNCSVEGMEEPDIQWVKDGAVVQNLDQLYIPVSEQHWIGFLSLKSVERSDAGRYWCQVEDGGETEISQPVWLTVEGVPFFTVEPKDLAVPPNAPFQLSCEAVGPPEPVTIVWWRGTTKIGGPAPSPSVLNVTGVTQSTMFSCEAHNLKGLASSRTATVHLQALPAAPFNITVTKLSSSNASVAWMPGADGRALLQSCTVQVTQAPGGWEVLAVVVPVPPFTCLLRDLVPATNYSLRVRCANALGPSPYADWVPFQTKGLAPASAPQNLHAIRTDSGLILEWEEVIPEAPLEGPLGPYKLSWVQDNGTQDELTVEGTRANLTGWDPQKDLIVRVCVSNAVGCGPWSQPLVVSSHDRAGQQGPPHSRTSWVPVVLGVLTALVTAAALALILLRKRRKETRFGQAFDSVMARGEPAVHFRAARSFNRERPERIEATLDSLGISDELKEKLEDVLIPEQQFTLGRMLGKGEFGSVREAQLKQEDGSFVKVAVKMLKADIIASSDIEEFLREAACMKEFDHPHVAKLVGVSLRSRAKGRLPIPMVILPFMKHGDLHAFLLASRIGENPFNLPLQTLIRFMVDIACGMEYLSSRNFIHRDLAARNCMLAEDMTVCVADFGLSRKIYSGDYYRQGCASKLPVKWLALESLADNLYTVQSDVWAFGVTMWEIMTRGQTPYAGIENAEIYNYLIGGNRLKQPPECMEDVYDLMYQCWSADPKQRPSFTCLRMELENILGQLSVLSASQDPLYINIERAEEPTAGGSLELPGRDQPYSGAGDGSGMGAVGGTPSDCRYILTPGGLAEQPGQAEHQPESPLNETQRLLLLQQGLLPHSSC
Format: biochemical
Protocol: Poly(Glu, Tyr) sodium salt (Glu:Tyr (4:1), quality level 200, molecular weight 5,000-20,000, obtained from Sigma Aldrich, catalogue #P7244, assay concentration 0.20 mg/mL) and recombinant human Tyro3 (obtained from ThermoFisher Scientific, catalogue #PV3828, assay concentration 2 nM) were mixed in assay buffer (20 mM Hepes pH 7.5, 10 mM MgCl2, […] EGTA, 0.02% Brij35, 0.02 mg/ml BSA, 0.1 mM Na3VO4, 2 mM DTT, 1% DMSO, with added MnCl2 at a final concentration of 2 mM). Compounds of interest (in DMSO, serial 3-fold dilution from 10 μM to 0.5 nM) or control (1% DMSO) were dispensed into the kinase reaction mixture by Acoustic technology (Echo550; nanoliter range). After incubation at room temperature for 20 minutes, the kinase reaction was initiated by addition of [^32P]-ATP (Specific activity 10 μCi/μL) and the mixture was incubated at room temperature for 2 hours. The reaction was then stopped by spotting the reaction mixture on strips of phosphocellulose P81 paper. Following washing, the radioactivity of the P81 paper was measured and kinase activity data were expressed as the percent remaining kinase activity in test samples compared to vehicle (dimethyl sulfoxide) reactions. IC50 values and curve fits were obtained using Prism (GraphPad Software).
In the case of COc1ccc(-c2c[nH]c3ncc(-c4cnn(C5CCN(C)CC5)c4)cc23)cn1 [Compound 1, 3-(6-methoxypyridin-3-yl)-5-(1-(1-methylpiperidin-4-yl)-1H-pyrazol-4-yl)-1H-pyrrolo[2,3-b]pyridine], the IC50 is reported as 151 to 501 nM. COc1ccc(-c2c[nH]c3ncc(-c4cn(C5CCN(C)CC5)nc4OC)cc23)cn1 [Compound 2, 5-(3-methoxy-1-(1-methylpiperidin-4-yl)-1H-pyrazol-4-yl)-3-(6-methoxypyridin-3-yl)-1H-pyrrolo[2,3-b]pyridine] was tested, and the IC50 was under 50 nM. For CCOc1nn(C2CCN(C)CC2)cc1-c1cnc2[nH]cc(-c3ccc(OC)nc3)c2c1 [Compound 3, 5-(3-ethoxy-1-(1-methylpiperidin-4-yl)-1H-pyrazol-4-yl)-3-(6-methoxypyridin-3-yl)-1H-pyrrolo[2,3-b]pyridine], the IC50 was under 50 nM. In the case of COc1ccc(-c2c[nH]c3ncc(-c4cn(C5CCN(C)CC5)nc4F)cc23)cn1 [Compound 4, 5-(3-fluoro-1-(1-methylpiperidin-4-yl)-1H-pyrazol-4-yl)-3-(6-methoxypyridin-3-yl)-1H-pyrrolo[2,3-b]pyridine], the IC50 is reported as 51 to 150 nM. COc1ccc(-c2c[nH]c3ncc(-c4cn(C5CCN(C)CC5)nc4Cl)cc23)cn1 [Compound 5, 5-(3-chloro-1-(1-methylpiperidin-4-yl)-1H-pyrazol-4-yl)-3-(6-methoxypyridin-3-yl)-1H-pyrrolo[2,3-b]pyridine] was tested, and the IC50 was under 50 nM. COc1ccc(-c2c[nH]c3ncc(-c4ccn(C5CCN(C)CC5)n4)cc23)cn1 [Compound 6, 3-(6-methoxypyridin-3-yl)-5-(1-(1-methylpiperidin-4-yl)-1H-pyrazol-3-yl)-1H-pyrrolo[2,3-b]pyridine] showed an IC50 of over 500 nM. In the case of COc1ccc(-c2c[nH]c3ncc(-c4ccnn4C4CCN(C)CC4)cc23)cn1 [Compound 7, 3-(6-methoxypyridin-3-yl)-5-(1-(1-methylpiperidin-4-yl)-1H-pyrazol-5-yl)-1H-pyrrolo[2,3-b]pyridine], the IC50 is reported as over 500 nM. In the case of COc1ccc(-c2c[nH]c3ncc(-c4cn(C5CCN(C)CC5)nc4C)cc23)cn1 [Compound 8, 3-(6-methoxypyridin-3-yl)-5-(3-methyl-1-(1-methylpiperidin-4-yl)-1H-pyrazol-4-yl)-1H-pyrrolo[2,3-b]pyridine], the IC50 is reported as 151 to 501 nM. COc1ccc(-c2c[nH]c3ncc(-c4cnn(C5CCN(C)CC5)c4C)cc23)cn1 [Compound 9, 3-(6-methoxypyridin-3-yl)-5-(5-methyl-1-(1-methylpiperidin-4-yl)-1H-pyrazol-4-yl)-1H-pyrrolo[2,3-b]pyridine] showed an IC50 of over 500 nM. Work on COc1nn(C2CCN(C)CC2)cc1-c1cnc2[nH]cc(-c3cccc(F)c3)c2c1 [Compound 10, 3-(3-fluorophenyl)-5-(3-methoxy-1-(1-methylpiperidin-4-yl)-1H-pyrazol-4-yl)-1H-pyrrolo[2,3-b]pyridine] yielded an IC50 of under 50 nM. Molecule CN1CCC(n2cc(-c3cnc4[nH]cc(-c5cccc(F)c5)c4c3)c(Cl)n2)CC1 [Compound 11, 5-(3-chloro-1-(1-methylpiperidin-4-yl)-1H-pyrazol-4-yl)-3-(3-fluorophenyl)-1H-pyrrolo[2,3-b]pyridine] has an IC50 of under 50 nM. COc1nn(C2CCN(C)C2)cc1-c1cnc2[nH]cc(-c3cccc(F)c3)c2c1 (stereo not shown) [Compound 12, 3-(3-fluorophenyl)-5-(3-methoxy-1-(1-methylpyrrolidin-3-yl)-1H-pyrazol-4-yl)-1H-pyrrolo[2,3-b]pyridine] was tested, and the IC50 was under 50 nM. COc1nn(C2CN(C)C2)cc1-c1cnc2[nH]cc(-c3cccc(F)c3)c2c1 [Compound 13, 3-(3-fluorophenyl)-5-(3-methoxy-1-(1-methylazetidin-3-yl)-1H-pyrazol-4-yl)-1H-pyrrolo[2,3-b]pyridine] showed an IC50 of under 50 nM. With COc1nn(C2CCCN(C)CC2)cc1-c1cnc2[nH]cc(-c3cccc(F)c3)c2c1 (stereo not shown) [Compound 14, 3-(3-fluorophenyl)-5-(3-methoxy-1-(1-methylazepan-4-yl)-1H-pyrazol-4-yl)-1H-pyrrolo[2,3-b]pyridine] the IC50 was under 50 nM. COc1nn(C2CCCN(C)C2)cc1-c1cnc2[nH]cc(-c3cccc(F)c3)c2c1 (stereo not shown) [Compound 15, 3-(3-fluorophenyl)-5-(3-methoxy-1-(1-methylpiperidin-3-yl)-1H-pyrazol-4-yl)-1H-pyrrolo[2,3-b]pyridine] gave an IC50 of 151 to 501 nM. With COc1nn(C2CCN(C)CC2)cc1-c1cnc2[nH]cc(-c3cccc(C(F)F)c3)c2c1 [Compound 16, 3-(3-(difluoromethyl)phenyl)-5-(3-methoxy-1-(1-methylpiperidin-4-yl)-1H-pyrazol-4-yl)-1H-pyrrolo[2,3-b]pyridine] the IC50 was under 50 nM. CN1CCC(n2cc(-c3cnc4[nH]cc(-c5cccc(C(F)F)c5)c4c3)c(F)n2)CC1 [Compound 17, 3-(3-(difluoromethyl)phenyl)-5-(3-fluoro-1-(1-methylpiperidin-4-yl)-1H-pyrazol-4-yl)-1H-pyrrolo[2,3-b]pyridine] showed an IC50 of 51 to 150 nM. Work on CN1CCC(n2cc(-c3cnc4[nH]cc(-c5cccc(C(F)F)c5)c4c3)c(Cl)n2)CC1 [Compound 18, 5-(3-chloro-1-(1-methylpiperidin-4-yl)-1H-pyrazol-4-yl)-3-(3-(difluoromethyl)phenyl)-1H-pyrrolo[2,3-b]pyridine] yielded an IC50 of under 50 nM. CCOc1nn(C2CCN(C)CC2)cc1-c1cnc2[nH]cc(-c3ccc(C(F)F)nc3)c2c1 [Compound 19, 3-(6-(difluoromethyl)pyridin-3-yl)-5-(3-ethoxy-1-(1-methylpiperidin-4-yl)-1H-pyrazol-4-yl)-1H-pyrrolo[2,3-b]pyridine] gave an IC50 of under 50 nM. With COc1nn(C2CCN(C)CC2)cc1-c1cnc2[nH]cc(-c3ccnc(C(F)F)c3)c2c1 [Compound 20, 3-(2-(difluoromethyl)pyridin-4-yl)-5-(3-methoxy-1-(1-methylpiperidin-4-yl)-1H-pyrazol-4-yl)-1H-pyrrolo[2,3-b]pyridine] the IC50 was under 50 nM. CCc1[nH]c2ncc(-c3cn(C4CCN(C)CC4)nc3OC)cc2c1-c1ccc(OC)nc1 [Compound 21, 2-ethyl-5-(3-methoxy-1-(1-methylpiperidin-4-yl)-1H-pyrazol-4-yl)-3-(6-methoxypyridin-3-yl)-1H-pyrrolo[2,3-b]pyridine] showed an IC50 of 51 to 150 nM. For CCc1[nH]c2ncc(-c3cn(C4CCN(CC)CC4)nc3F)cc2c1-c1ccc(OC)nc1 [Compound 22, 2-ethyl-5-(1-(1-ethylpiperidin-4-yl)-3-fluoro-1H-pyrazol-4-yl)-3-(6-methoxypyridin-3-yl)-1H-pyrrolo[2,3-b]pyridine], the IC50 was 51 to 150 nM. CCc1[nH]c2ncc(-c3cn(C4CCN(C)CC4)nc3Cl)cc2c1-c1ccc(OC)nc1 [Compound 23, 5-(3-chloro-1-(1-methylpiperidin-4-yl)-1H-pyrazol-4-yl)-2-ethyl-3-(6-methoxypyridin-3-yl)-1H-pyrrolo[2,3-b]pyridine] was tested, and the IC50 was 51 to 150 nM. CCc1[nH]c2ncc(-c3cn(C4CCN(C)CC4)nc3OC)cc2c1-c1cccc(F)c1 [Compound 24, 2-ethyl-3-(3-fluorophenyl)-5-(3-methoxy-1-(1-methylpiperidin-4-yl)-1H-pyrazol-4-yl)-1/-pyrrolo[2,3-b]pyridine] was tested, and the IC50 was 51 to 150 nM. Work on CCc1[nH]c2ncc(-c3cn(C4CCN(C)CC4)nc3F)cc2c1-c1cccc(F)c1 [Compound 25, 2-ethyl-5-(3-fluoro-1-(1-methylpiperidin-4-yl)-1H-pyrazol-4-yl)-3-(3-fluorophenyl)-1H-pyrrolo[2,3-b]pyridine] yielded an IC50 of 51 to 150 nM.
